{
  "source": "patent US20140088063A1",
  "about": "“AGENTS FOR TREATING NEURODEGENERATIVE DISORDERS” (priority 2010, published 2014)",
  "key": {"male white rats [1]": {"test_system": "male white rats", "assay": "Modified behavioral despair test (water wheel)", "type": "in vivo", "settings": "3 h", "protocol": "Nomura et al. (1982) published a modification of the despair swim test in mice involving small water wheel set in a water tank. Mice placed on this apparatus turned the wheel vigorously but when they abandoned attempts to escape from the water, the wheel stopped turning. Antidepressant activity of compounds was assessed by counting the number of rotations of the water wheel (see Table 4).\n(§1) The male white rats (250-280 g) were treated intraperitoneally according to procedure described below. The animals were divided into five groups of ten rats and treated as follows. The rats of first group were used as controls. They were injected intraperitoneally with distilled water 24 h, 3 h, 40 minutes before the experiment. Second group was treated with Compound Ia at a dose 100 mg/kg i.p. 24 h, 3 h, 40 minutes before the experiment. Third group was treated with Amitriptyline at a dose 10 mg/kg i.p. using the same regimen as in groups above.\nThe antidepressant activity was assessed by estimating immobility time as a period in which animal remains immobile during swimming (see Table 4). Statistical data processing was performed using “BioStat” tool for Windows."}, "male white rats [2]": {"test_system": "male white rats", "assay": "Behavioral despair test (forced swimming)", "type": "in vivo", "settings": "3 h", "protocol": "This behavior reflects a state of despair which can be reduced by several agents which are therapeutically effective in human depression.\nas §1, with “I′” for “Ia”\nThe antidepressant activity was assessed by estimating immobility time as a period in which animal remains immobile during swimming (see Table 2). Statistical data processing was performed using “BioStat” tool for Windows."}, "C57BL/6J mice [3]": {"test_system": "C57BL/6J mice", "assay": "Black and white box test (light-dark test)", "type": "in vivo", "settings": "entries to the light zone; i.p.; percent of control (non-treated animals) taken as 100%", "excerpt": "The black and white test (also named light-dark test) is based on the conflict of natural tendencies of rodents to avoid lighted and open areas and to explore novel environments. Relative time spent in exploring each compartment indicates the anxiety level of the animal: Avoidance of the brightly lit area is considered reflecting “anxiety-like” behaviors. When treated with anxiolytic drugs, rodents spend more time in this area, an effect purportedly due to a decrease in anxiety.\nThe C57BL/6J mice were treated intraperitoneally with compound of the invention, then anxiolytic efficacy of compounds of formula I was assessed by estimating the number of entries to the light zone (see Table 1)."}, "C57BL/6J mice [4]": {"test_system": "C57BL/6J mice", "assay": "Learned helplessness test (compounds of formula I)", "type": "in vivo", "settings": "percent of control (non-treated animals) taken as 100%; for Latency time, % 1/3 LD50: i.p. dose 1/3 of LD50; for Latency time, % 1/13 LD50: i.p. dose 1/13 of LD50", "protocol": "The learned helplessness test in mice is the well-known animal model to determine antidepressant efficacy of compounds. Basically when animals learned to be helpless are given antidepressant drugs, they unlearn helplessness and start exerting control over their environment.\nThe C57BL/6J mice were treated intraperitoneally with compounds of formula I intraperitoneally at dose corresponding to ⅓ or 1/13 of lethal dose, then antidepressant activity of compounds was assessed by estimating latency time as a period in which animal is not trying to escape from stress (see Table 1)."}, "C57BL/6J mice [5]": {"test_system": "C57BL/6J mice", "assay": "Learned helplessness test (compound of formula I′)", "type": "in vivo", "protocol": "As explained above, the learned helplessness test in mice is the well-known animal model to determine antidepressant efficacy of compounds. Basically when animals learned to be helpless are given antidepressant drugs, they unlearn helplessness and start exerting control over their environment. Antidepressant activity of compounds was assessed by estimating latency time as a period in which animal is not trying to escape from stress (see Table 3). […]"}, "C57BL/6J mice [6]": {"test_system": "C57BL/6J mice", "assay": "Toxicity test, median lethal dose after intraperitoneal injection", "type": "in vivo", "protocol": "Toxicity to mammals was measured after intraperitoneal injections of compounds of formula I to C57BL/6J mice. Median lethal dose (LD50) was calculated as described previously (see table 1)."}, "[7]": {"settings": "acute toxicity, known antidepressants for comparison; cited from earlier work"}, "[8]": {"settings": "10 mg/kg i.p. 24 h, 40 minutes before the experiment (Fluoxetin as powder)"}, "[9]": {"settings": "90 mg/kg i.p. once daily, 2 days course"}, "[10]": {"settings": "90 mg/kg i.p. once daily, 6 days course"}, "[11]": {"settings": "90 mg/kg i.p. once daily, 12 days course"}, "[12]": {"settings": "100 mg/kg i.p. 24 h, 40 minutes before the experiment"}, "[13]": {"settings": "100 mg/kg i.p. three times 24 h, 40 min before experiment"}},
  "note": "Marks after values point to notes of the source that are not given here.",
  "data": [
    {"smiles": "CN(C)CCC=C1c2ccccc2CCc2ccccc21", "note": "[Amitriptyline, reference compound]", "values": [
      {"measurement": "Rotation number", "setting": "male white rats [1]; [8]", "result": "165.93 ± 35.41"},
      {"measurement": "Immobility time", "setting": "male white rats [2]; [8]", "result": "145.62 ± 45.39", "unit": "s"}
    ]},
    {"smiles": "CNCCC(Oc1ccc(C(F)(F)F)cc1)c1ccccc1", "note": "(centres unmarked) [Fluoxetin]", "values": [
      {"measurement": "Rotation number", "setting": "male white rats [1]; [8]", "result": "108.34 ± 53.96"},
      {"measurement": "Immobility time", "setting": "male white rats [2]; [8]", "result": "337.45 ± 36.69", "unit": "s"},
      {"measurement": "Immobility time", "setting": "male white rats [2]; 20 mg/kg 24 h, 40 minutes before the experiment (Fluoxetin as tablet)", "result": "218.45 ± 38.87", "unit": "s"}
    ]},
    {"smiles": "C1CCC2(CC1)NN2CCN1NC12CCCCC2", "note": "[Ia, meso-1S,2S,1′R,2′R-1-[2-(1,2-diazaspiro[2.5]oct-1-yl)ethyl]-1,2-diazaspiro[2.5]octane]", "values": [
      {"measurement": "Number of entries, %", "setting": "C57BL/6J mice [3]", "result": "56** %"},
      {"measurement": "Latency time, % 1/3 LD50", "setting": "C57BL/6J mice [4]", "result": "56** %"},
      {"measurement": "Latency time, % 1/13 LD50", "setting": "C57BL/6J mice [4]", "result": "72** %"},
      {"measurement": "Latency time", "setting": "C57BL/6J mice [5]; [9]", "result": "13.6 ± 1.1", "unit": "s"},
      {"measurement": "Non-escaping animals, %", "setting": "C57BL/6J mice [5]; [9]", "result": "18** %"},
      {"measurement": "Latency time", "setting": "C57BL/6J mice [5]; [10]", "result": "7.5 ± 0.9", "unit": "s"},
      {"measurement": "Non-escaping animals, %", "setting": "C57BL/6J mice [5]; [10]", "result": "12** %"},
      {"measurement": "Latency time", "setting": "C57BL/6J mice [5]; [11]", "result": "6.2 ± 0.5", "unit": "s"},
      {"measurement": "Non-escaping animals, %", "setting": "C57BL/6J mice [5]; [11]", "result": "1.4** %"},
      {"measurement": "effect of single doses in learned helplessness test", "setting": "C57BL/6J mice [5]; single dose", "result": "not effective"},
      {"measurement": "LD50", "setting": "C57BL/6J mice [6]", "result": 611, "unit": "mg/kg"}
    ]},
    {"smiles": "CC1(C)NN1CCCCN1NC1(C)C", "note": "[Ic, meso-1S,2S,1′R,2′R-1-[4-(3,3-dimethyldiaziridin-1-yl)butyl]-3,3-dimethyldiaziridine]", "values": [
      {"measurement": "Number of entries, %", "setting": "C57BL/6J mice [3]", "result": "62** %"},
      {"measurement": "Latency time, % 1/3 LD50", "setting": "C57BL/6J mice [4]", "result": "188** %"},
      {"measurement": "Latency time, % 1/13 LD50", "setting": "C57BL/6J mice [4]", "result": 104, "unit": "%"},
      {"measurement": "LD50", "setting": "C57BL/6J mice [6]", "result": 1000, "unit": "mg/kg"}
    ]},
    {"smiles": "CC1(C)NN1CCN1NC12CCCCC2", "note": "[Ie, meso-1S,2S,1′R,2′R-1-[2-(3,3-dimethyldiaziridin-1-yl)ethyl]-1,2-diazaspiro[2.5]octane]", "values": [
      {"measurement": "Number of entries, %", "setting": "C57BL/6J mice [3]", "result": "75** %"},
      {"measurement": "Latency time, % 1/3 LD50", "setting": "C57BL/6J mice [4]", "result": "62** %"},
      {"measurement": "Latency time, % 1/13 LD50", "setting": "C57BL/6J mice [4]", "result": "74** %"},
      {"measurement": "LD50", "setting": "C57BL/6J mice [6]", "result": 1125, "unit": "mg/kg"}
    ]},
    {"smiles": "C1CCC2(C1)NN2CCN1NC12CCCC2", "note": "[If, meso-1S,2S,1′R,2′R-1-[2-(1,2-diazaspiro[2.4]hept-1-yl)ethyl]-1,2-diazaspiro[2.4]heptane]", "values": [
      {"measurement": "Number of entries, %", "setting": "C57BL/6J mice [3]", "result": "60** %"},
      {"measurement": "Latency time, % 1/3 LD50", "setting": "C57BL/6J mice [4]", "result": 95, "unit": "%"},
      {"measurement": "Latency time, % 1/13 LD50", "setting": "C57BL/6J mice [4]", "result": 94, "unit": "%"},
      {"measurement": "LD50", "setting": "C57BL/6J mice [6]", "result": 1150, "unit": "mg/kg"}
    ]},
    {"smiles": "[H][N@]1[N@@](CC[N@@]2[N@]([H])C2(C)C)C1(C)C", "note": "[I′, meso-1S,2S,1′R,2′R-1-[2-(3,3-dimethyldiaziridin-1-yl)ethyl]-3,3-dimethyldiaziridine]", "values": [
      {"measurement": "time after which antidepressive effect was observed", "setting": "C57BL/6J mice [5]; 90 mg/kg i.p. once daily, earlier than for comparative drugs", "result": 2, "unit": "days"},
      {"measurement": "Rotation number", "setting": "male white rats [1]; [12]", "result": "156.48 ± 26.79"},
      {"measurement": "antidepressant activity (modified behavioral despair test)", "setting": "male white rats [1]; [13]", "result": "significant antidepressant activity"},
      {"measurement": "Immobility time", "setting": "male white rats [2]; [12]", "result": "291.55 ± 43.94", "unit": "s"},
      {"measurement": "antidepressant activity (behavioral despair test)", "setting": "male white rats [2]; [13]", "result": "significant antidepressant activity"}
    ]},
    {"smiles": "O=C(CCNNC(=O)c1ccncc1)NCc1ccccc1", "note": "[Nyalamidum]", "values": [
      {"measurement": "LD50", "setting": "[7]", "result": 820, "unit": "mg/kg"}
    ]},
    {"smiles": "CN(C)CCCC1(c2ccc(F)cc2)OCc2cc(C#N)ccc21", "note": "(centres unmarked) [cypramile]", "values": [
      {"measurement": "LD50", "setting": "[7]", "result": 1.7, "unit": "mg/kg"}
    ]},
    {"smiles": "CN(C)CCCN1c2ccccc2CCc2ccccc21", "note": "[melipramine]", "values": [
      {"measurement": "Latency time", "setting": "C57BL/6J mice [5]; 7 mg/kg i.p., 2 days course", "result": "13.5 ± 1.8", "unit": "s"},
      {"measurement": "Non-escaping animals, %", "setting": "C57BL/6J mice [5]; 7 mg/kg i.p., 2 days course", "result": 43, "unit": "%"},
      {"measurement": "Latency time", "setting": "C57BL/6J mice [5]; 7 mg/kg i.p., 6 days course", "result": "11.8 ± 1.5", "unit": "s"},
      {"measurement": "Non-escaping animals, %", "setting": "C57BL/6J mice [5]; 7 mg/kg i.p., 6 days course", "result": 29, "unit": "%"},
      {"measurement": "Latency time", "setting": "C57BL/6J mice [5]; 7 mg/kg i.p., 12 days course", "result": "9.2 ± 1.1", "unit": "s"},
      {"measurement": "Non-escaping animals, %", "setting": "C57BL/6J mice [5]; 7 mg/kg i.p., 12 days course", "result": "11* %"}
    ]},
    {"smiles": "Cc1ccc2c(c1)c1c3n2CCNC3CCC1", "note": "(centres unmarked) [pirazidole]", "values": [
      {"measurement": "Latency time", "setting": "C57BL/6J mice [5]; 10 mg/kg i.p., 2 days course", "result": "13.6 ± 1.1", "unit": "s"},
      {"measurement": "Non-escaping animals, %", "setting": "C57BL/6J mice [5]; 10 mg/kg i.p., 2 days course", "result": 39, "unit": "%"},
      {"measurement": "Latency time", "setting": "C57BL/6J mice [5]; 10 mg/kg i.p., 6 days course", "result": "10.0 ± 1.4", "unit": "s"},
      {"measurement": "Non-escaping animals, %", "setting": "C57BL/6J mice [5]; 10 mg/kg i.p., 6 days course", "result": 18, "unit": "%"},
      {"measurement": "Latency time", "setting": "C57BL/6J mice [5]; 10 mg/kg i.p., 12 days course", "result": "8.3 ± 0.7", "unit": "s"},
      {"measurement": "Non-escaping animals, %", "setting": "C57BL/6J mice [5]; 10 mg/kg i.p., 12 days course", "result": "14* %"}
    ]}
  ]
}
